Each block holds one molecule with its values, some of them ahead of it.
System: MV4-11 cells
Test: Cell proliferation assay MV4;11 (CellTiter-Glo, 72 hours)
Assay type: cell-based
Details: Homo sapiens; MV4;11 leukemia cell line, 72 hours; read-out: MV4; 11 IC50
Description: Compounds were evaluated for its capacity to inhibit the proliferation of the MLLr leukemia cell line MV4-11 that harbors an MLL1-AF4 fusion protein. MV4-11 cells were cultured for 72 hours with limiting dilutions of compounds and viability was measured using CellTiter-Glo.
Compounds were dissolved to obtain as 10 mM solution in DMSO. The stock was diluted 1:5 to the top concentration of 2 mM in 100% DMSO. For IC50 determination, serial 1:3.16 dilutions were prepared in 100% DMSO by diluting 20 μL into 43.5 μL of DMSO for 8 concentrations. Each prepared DMSO solution were further diluted 1:500 in the cell culture media to obtain the 2× dosing solutions. The final concentrations of tested compounds in the cell culture media ranged from 0.632 nM to 2000 nM.
MV4-11 cells were cultured in IMDM with 10% FBS and 1× Penicillin-Streptomycin at 5% CO2 and 37° C. A cell suspension was prepared containing 15,000 cells/ml in the culture medium and 100 μL of this suspension was added per well to a 96-well cell culture plate. Then, 100 μL of 2× dosing media containing test compounds were added bringing the total volume to 200 μL. These cells were cultured for 72 hours at 37° C. and 5% CO2 in a humidified incubator.
After 72 hours, the cultured cells were mixed and 100p L was transferred to a 96-well black plate. Cell Titer Glo (100 μl) was then added to this plate. The plate was mixed with shaking for 15 mins at RT, the luminescence was then measured using Tecan Spark 20M spectrophotometer. Cell Viability (%) was determined by RLU of test/RLU average vehicle control*100 and % max inhibition was determined by 100−(% cell viability remaining at the top concentration of compound).

SMILES: CC(C)S(=O)(=O)N[C@@H]1CC[C@@H](CN2CCC3(CC2)CN(c2ncncc2Oc2ccc(F)cc2C(=O)N2[C@H](C)COC[C@@H]2C)C3)OC1 [Example 25, N-((3R,6S)-6-((2-(5-(2-((3S,5R)-3,5-Dimethylmorpholine-4-carbonyl)-4-fluorophenoxy)pyrimidin-4-yl)-2,7-diazaspiro[3.5]nonan-7-yl)methyl)tetrahydro-2H-pyran-3-yl)propane-2-sulfonamide]
IC50: < 100 nM

SMILES: C[C@@H]1COC[C@H](C)N1C(=O)c1cc(F)ccc1Oc1cncnc1N1CC2(CCN(C[C@@H]3CC[C@@H](NS(=O)(=O)C4CC4)CO3)CC2)C1 [Example 26, N-((3R,6S)-6-((2-(5-(2-((3S,5R)-3,5-Dimethylmorpholine-4-carbonyl)-4-fluorophenoxy)pyrimidin-4-yl)-2,7-diazaspiro[3.5]nonan-7-yl)methyl)tetrahydro-2H-pyran-3-yl)cyclopropanesulfonamide]
IC50: < 100 nM

IC50: 100 to 1000 nM
SMILES: C[C@@H]1COC[C@H](C)N1C(=O)c1cc(F)ccc1Oc1cncnc1N1CC2(CCN(C[C@@H]3CC[C@@H](NS(=O)(=O)C4COC4)CO3)CC2)C1 [Example 27, N-((3R,6S)-6-((2-(5-(2-((3S,5R)-3,5-Dimethylmorpholine-4-carbonyl)-4-fluorophenoxy)pyrimidin-4-yl)-2,7-diazaspiro[3.5]nonan-7-yl)methyl)tetrahydro-2H-pyran-3-yl)oxetane-3-sulfonamide]

SMILES: C[C@@H]1COC[C@@H](C)N1C(=O)c1cc(F)ccc1Oc1cncnc1N1CC2(CCN(C[C@@H]3CC[C@@H](NS(C)(=O)=O)CO3)CC2)C1 [Example 28, N-((3R,6S)-6-((2-(5-(2-((3R,5R)-3,5-Dimethylmorpholine-4-carbonyl)-4-fluorophenoxy)pyrimidin-4-yl)-2,7-diazaspiro[3.5]nonan-7-yl)methyl)tetrahydro-2H-pyran-3-yl)methanesulfonamide]
IC50: 100 to 1000 nM

SMILES: CCS(=O)(=O)N[C@@H]1CC[C@@H](CN2CCC3(CC2)CN(c2ncncc2Oc2ccc(F)cc2C(=O)N2[C@H](C)COC[C@H]2C)C3)OC1 [Example 29, N-((3R,6S)-6-((2-(5-(2-((3R,5R)-3,5-Dimethylmorpholine-4-carbonyl)-4-fluorophenoxy)pyrimidin-4-yl)-2,7-diazaspiro[3.5]nonan-7-yl)methyl)tetrahydro-2H-pyran-3-yl)ethanesulfonamide]
IC50: < 100 nM

SMILES: CC(C)S(=O)(=O)N[C@@H]1CC[C@@H](CN2CCC3(CC2)CN(c2ncncc2Oc2ccc(F)cc2C(=O)N2[C@H](C)COC[C@H]2C)C3)OC1 [Example 30, N-((3R,6S)-6-((2-(5-(2-((3R,5R)-3,5-Dimethylmorpholine-4-carbonyl)-4-fluorophenoxy)pyrimidin-4-yl)-2,7-diazaspiro[3.5]nonan-7-yl)methyl)tetrahydro-2H-pyran-3-yl)propane-2-sulfonamide]
IC50: < 100 nM

SMILES: C[C@@H]1COC[C@@H](C)N1C(=O)c1cc(F)ccc1Oc1cncnc1N1CC2(CCN(C[C@@H]3CC[C@@H](NS(=O)(=O)C4CC4)CO3)CC2)C1 [Example 31, N-((3R,6S)-6-((2-(5-(2-((3R,5R)-3,5-dimethylmorpholine-4-carbonyl)-4-fluorophenoxy)pyrimidin-4-yl)-2,7-diazaspiro[3.5]nonan-7-yl)methyl)tetrahydro-2H-pyran-3-yl)cyclopropanesulfonamide]
IC50: < 100 nM

SMILES: C[C@@H]1COC[C@@H](C)N1C(=O)c1cc(F)ccc1Oc1cncnc1N1CC2(CCN(C[C@@H]3CC[C@@H](NS(=O)(=O)C4COC4)CO3)CC2)C1 [Example 32, N-((3R,6S)-6-((2-(5-(2-((3R,5R)-3,5-Dimethylmorpholine-4-carbonyl)-4-fluorophenoxy)pyrimidin-4-yl)-2,7-diazaspiro[3.5]nonan-7-yl)methyl)tetrahydro-2H-pyran-3-yl)oxetane-3-sulfonamide]
IC50: 100 to 1000 nM

SMILES: CCS(=O)(=O)N[C@@H]1CC[C@@H](CN2CCC3(CC2)CN(c2ncncc2Oc2ccc(F)cc2C(=O)N(C(C)C)[C@H]2CCOC2)C3)OC1 [Example 33, 2-((4-(7-(((2S,5R)-5-(Ethylsulfonamido)tetrahydro-2H-pyran-2-yl)methyl)-2,7-diazaspiro[3.5]nonan-2-yl)pyrimidin-5-yl)oxy)-5-fluoro-N-isopropyl-N-((S)-tetrahydrofuran-3-yl)benzamide]
IC50: < 100 nM

SMILES: CCS(=O)(=O)N[C@@H]1CC[C@@H](CN2CCC3(CC2)CN(c2ncncc2Oc2ccc(F)cc2C(=O)N(CC(F)F)C(C)C)C3)OC1 [Example 34, N-(2,2-Difluoroethyl)-2-((4-(7-(((2S,5R)-5-(ethylsulfonamido)tetrahydro-2H-pyran-2-yl)methyl)-2,7-diazaspiro[3.5]nonan-2-yl)pyrimidin-5-yl)oxy)-5-fluoro-N-isopropylbenzamide]
IC50: < 100 nM

SMILES: CCS(=O)(=O)N[C@@H]1CC[C@@H](CN2CCC3(CC2)CN(c2ncncc2Oc2ccc(F)cc2C(=O)N(CCOC)C(C)C)C3)OC1 [Example 35, 2-((4-(7-(((2S,5R)-5-(Ethylsulfonamido)tetrahydro-2H-pyran-2-yl)methyl)-2,7-diazaspiro[3.5]nonan-2-yl)pyrimidin-5-yl)oxy)-5-fluoro-N-isopropyl-N-(2-methoxyethyl)benzamide]
IC50: < 100 nM

SMILES: CCS(=O)(=O)N[C@@H]1CC[C@@H](CN2CCC3(CC2)CN(c2ncncc2Oc2ccc(F)cc2C(=O)N2[C@H](C)CCC[C@@H]2C)C3)OC1 [Example 36, N-((3R,6S)-6-((2-(5-(2-((2S,6R)-2,6-Dimethylpiperidine-1-carbonyl)-4-fluorophenoxy)pyrimidin-4-yl)-2,7-diazaspiro[3.5]nonan-7-yl)methyl)tetrahydro-2H-pyran-3-yl)ethanesulfonamide]
IC50: < 100 nM

SMILES: CCN(C(=O)c1cc(F)ccc1Oc1cncnc1N1CC2(CCN(C[C@@H]3CC[C@@H](NC(=O)NCC(F)(F)F)CO3)CC2)C1)C(C)C [Example 37, N-Ethyl-5-fluoro-N-isopropyl-2-((4-(7-(((2S,5R)-5-(3-(2,2,2-trifluoroethyl)ureido)tetrahydro-2H-pyran-2-yl)methyl)-2,7-diazaspiro[3.5]nonan-2-yl)pyrimidin-5-yl)oxy)benzamide]
IC50: < 100 nM

SMILES: CCCNC(=O)N[C@@H]1CC[C@@H](CN2CCC3(CC2)CN(c2ncncc2Oc2ccc(F)cc2C(=O)N(CC)C(C)C)C3)OC1 [Example 38, N-Ethyl-5-fluoro-N-isopropyl-2-((4-(7-(((2S,5R)-5-(3-propylureido)tetrahydro-2H-pyran-2-yl)methyl)-2,7-diazaspiro[3.5]nonan-2-yl)pyrimidin-5-yl)oxy)benzamide]
IC50: 100 to 1000 nM

SMILES: CCNC(=O)N[C@@H]1CC[C@@H](CN2CCC3(CC2)CN(c2ncncc2Oc2ccc(F)cc2C(=O)N(CC)C(C)C)C3)OC1 [Example 39, N-Ethyl-2-((4-(7-(((2S,5R)-5-(3-ethylureido)tetrahydro-2H-pyran-2-yl)methyl)-2,7-diazaspiro[3.5]nonan-2-yl)pyrimidin-5-yl)oxy)-5-fluoro-N-isopropylbenzamide]
IC50: < 100 nM

IC50: 100 to 1000 nM
SMILES: C[C@H]1COCCN1C(=O)c1cc(F)ccc1Oc1cncnc1N1CC2(CCN(C[C@@H]3CC[C@@H](NS(=O)(=O)C4CC4)CO3)CC2)C1 [Example 40, N-((3R,6S)-6-((2-(5-(4-Fluoro-2-((S)-3-methylmorpholine-4-carbonyl)phenoxy)pyrimidin-4-yl)-2,7-diazaspiro[3.5]nonan-7-yl)methyl)tetrahydro-2H-pyran-3-yl)cyclopropanesulfonamide]

SMILES: CCN(C(=O)c1cc(F)ccc1Oc1cncnc1N1CC2(CCN(C[C@@H]3CC[C@@H](NC(=O)NCC(F)F)CO3)CC2)C1)C(C)C [Example 41, 2-((4-(7-(((2S,5R)-5-(3-(2,2-Difluoroethyl)ureido)tetrahydro-2H-pyran-2-yl)methyl)-2,7-diazaspiro[3.5]nonan-2-yl)pyrimidin-5-yl)oxy)-N-ethyl-5-fluoro-N-isopropylbenzamide]
IC50: 100 to 1000 nM

SMILES: CCN(C(=O)c1cc(F)ccc1Oc1cncnc1N1CC2(CCN(C[C@@H]3CC[C@@H](NC(=O)NCC4CC4)CO3)CC2)C1)C(C)C [Example 42, 2-((4-(7-(((2S,5R)-5-(3-(Cyclopropylmethyl)ureido)tetrahydro-2H-pyran-2-yl)methyl)-2,7-diazaspiro[3.5]nonan-2-yl)pyrimidin-5-yl)oxy)-N-ethyl-5-fluoro-N-isopropylbenzamide]
IC50: 100 to 1000 nM

SMILES: CCS(=O)(=O)N[C@@H]1CC[C@@H](CN2CCC3(CC2)CN(c2ncncc2Oc2ccc(F)cc2C(=O)N(CCC#N)C(C)C)C3)OC1 [Example 43, N-(2-Cyanoethyl)-2-((4-(7-(((2S,5R)-5-(ethylsulfonamido)tetrahydro-2H-pyran-2-yl)methyl)-2,7-diazaspiro[3.5]nonan-2-yl)pyrimidin-5-yl)oxy)-5-fluoro-N-isopropylbenzamide]
IC50: 100 to 1000 nM

SMILES: CCS(=O)(=O)N[C@@H]1CC[C@@H](CN2CCC3(CC2)CN(c2ncncc2Oc2ccc(F)cc2C(=O)N(C(C)C)C2CC(F)(F)C2)C3)OC1 [Example 44, N-(3,3-Difluorocyclobutyl)-2-((4-(7-(((2S,5R)-5-(ethylsulfonamido)tetrahydro-2H-pyran-2-yl)methyl)-2,7-diazaspiro[3.5]nonan-2-yl)pyrimidin-5-yl)oxy)-5-fluoro-N-isopropylbenzamide]
IC50: < 100 nM
